Read-outs that look alike come from different tables or passages of the source.
Key:
[1] = biological target: T1, FLAP (5-LOX product formation) (Homo sapiens, UniProt P20292); test: FLAP-dependent 5-LOX product formation in human neutrophils; assay type: cell-based; conditions: for IC50: human neutrophils, A23187 stimulated, read-out: FLAP (5-LOX product formation) IC50 ± SEM
T1 construct: Human neutrophils were isolated from buffy coats of healthy adult fasted donors; endogenous in cells; host or cells: primary human neutrophils from buffy coats
T1 sequence (P20292 1-161): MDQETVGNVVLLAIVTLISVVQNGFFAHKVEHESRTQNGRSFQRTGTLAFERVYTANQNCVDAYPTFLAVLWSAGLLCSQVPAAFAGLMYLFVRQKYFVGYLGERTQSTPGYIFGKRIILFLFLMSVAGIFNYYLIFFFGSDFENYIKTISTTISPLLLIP
Protocol: Human neutrophils were isolated from buffy coats of healthy adult fasted donors as described recently.[32] […] 200 ng of internal PGB1 standard was added to the acidified samples and solid-phase-extraction using C18 RP-columns (100 mg, UCT, Bristol, PA, USA) was performed. Samples were eluted with methanol and 5-LOX products including 5-HpETE, and the corresponding alcohol 5-HETE, LTB4, and all-trans-isomers of LTB4 were analysed by RP-HPLC with a C-18 Radial-PAK column (Waters, Eschborn, Germany) as described.[33]

Human recombinant sEH = biological target: T2, Human recombinant sEH (Homo sapiens, UniProt P34913); test: sEH activity assay (PHOME fluorescence, cell-free); assay type: biochemical
T2 construct: made in house
T2 sequence (P34913 1-555): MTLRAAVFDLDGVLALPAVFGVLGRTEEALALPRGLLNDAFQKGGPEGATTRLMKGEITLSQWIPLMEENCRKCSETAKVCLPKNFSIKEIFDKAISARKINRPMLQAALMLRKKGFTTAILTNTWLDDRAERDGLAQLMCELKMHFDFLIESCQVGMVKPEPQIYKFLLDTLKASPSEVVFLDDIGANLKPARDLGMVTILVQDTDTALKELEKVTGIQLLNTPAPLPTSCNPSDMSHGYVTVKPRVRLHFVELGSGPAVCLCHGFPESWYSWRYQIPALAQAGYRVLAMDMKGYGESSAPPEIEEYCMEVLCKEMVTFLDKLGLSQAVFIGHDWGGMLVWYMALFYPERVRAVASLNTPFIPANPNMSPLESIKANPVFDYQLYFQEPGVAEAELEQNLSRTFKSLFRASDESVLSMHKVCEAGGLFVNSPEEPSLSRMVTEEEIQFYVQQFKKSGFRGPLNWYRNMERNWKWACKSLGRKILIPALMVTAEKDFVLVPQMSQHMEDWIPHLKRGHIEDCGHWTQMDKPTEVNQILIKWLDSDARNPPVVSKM
Protocol: Human recombinant sEH was expressed and purified as published.[23] Isolated sEH was diluted in 25 mM Tris buffer (pH 7) containing 0.1 mg/mL BSA to a final protein concentration of 0.5 µg/mL. Preincubation with test compounds or 0.1% vehicle (DMSO) at room temperature for 10 min was followed by stimulation with 50 µM PHOME at RT for 60 min. Reactions were stopped with 200 mM ZnSO4 and fluorescence was subsequently detected at λem 465 nm and λex 330 nm. If required, possible fluorescence of the compounds was subtracted from the read-out.

[2] = biological target: T1, FLAP (5-LOX product formation); conditions: neutrophils; cited from earlier work
[3] = parameters: method as in PMID 28218273, PMID 26882208, PMID 28839250; conditions: cited from earlier work
LT biosynthesis = conditions: cited from earlier work
[4] = lead compound, stated without reference; cited from earlier work
[5] = read-out: sEH IC50 ± SEM, human recombinant sEH, cell-free

Cc1cc(NC(=S)Nc2ccc(Cl)c(Cl)c2)ccc1OCc1nc2ccccc2[nH]1 [Compound 6f, 1-(4-((1H-benzo[d]imidazol-2-yl)methoxy)-3-methylphenyl)-3-(3,4-dichlorophenyl)thiourea] gave an IC50 [1] of 750 ± 170 nM, an IC50 (Human recombinant sEH) of 772 ± 169 nM and a melting point of 167 to 168 °C.
With CC(C)(C)OC(=O)n1c(COc2ccc(NC(=O)Nc3ccc(Cl)c(Cl)c3)cc2)nc2ccccc21 [Compound 5b, tert-butyl 2-((4-(3-(3,4-dichlorophenyl)ureido)phenoxy)methyl)-1H-benzo[d]imidazole-1-carboxylate] the IC50 [1] was > 10000 nM, the IC50 (Human recombinant sEH) was 0.63 ± 0.1 nM and the melting point was 262 to 264 °C.
Cc1cc(NC(=O)Nc2ccc(Cl)c(Cl)c2)ccc1OCc1nc2ccccc2[nH]1 [Compound 6c, 1-(4-((1H-benzo[d]imidazol-2-yl)methoxy)-3-methylphenyl)-3-(3,4-dichlorophenyl)urea] gave an IC50 [1] of 400 ± 10 nM, an IC50 (Human recombinant sEH) of 4.9 ± 1 nM and a melting point of 228 to 230 °C.
Work on O=C(Nc1ccc(OCc2nc3ccccc3[nH]2)cc1)Nc1ccc(Cl)c(Cl)c1 [Compound 6b, 1-(4-((1H-benzo[d]imidazol-2-yl)methoxy)phenyl)-3-(3,4-dichlorophenyl)urea] yielded an IC50 [1] of 600 ± 100 nM, an IC50 (Human recombinant sEH) of 10.5 ± 1.9 nM and a melting point of 272 °C.
For CC(C)(C)OC(=O)n1c(COc2ccc(NC(=S)Nc3ccc(Cl)c(Cl)c3)cc2)nc2ccccc21 [Compound 5e, tert-butyl 2-((4-(3-(3,4-dichlorophenyl)thioureido)phenoxy)methyl)-1H-benzo[d]imidazole-1-carboxylate], the IC50 [1] was > 10000 nM, the IC50 (Human recombinant sEH) was 19.1 ± 7.2 nM and the melting point was 165 to 167 °C.
For CC(C)c1ccc2c(c1)c(SC(C)(C)C)c(CC(C)(C)C(=O)O)n2Cc1ccc(Cl)cc1 [MK-886], the IC50 [2] is listed as 10 to 14 nM.
In the case of Cc1cc(NC(=S)Nc2ccc(Cl)c(Cl)c2)ccc1OCc1nc2ccccc2n1C(=O)OC(C)(C)C [Compound 5f, tert-butyl 2-((4–(3-(3,4-dichlorophenyl)thioureido)-2-methylphenoxy)methyl)-1H-benzo[d]imidazole-1-carboxylate], the IC50 [1] is reported as > 10000 nM, the IC50 (Human recombinant sEH) is reported as 17.5 ± 12.7 nM and the melting point is reported as 169 to 172 °C.
In the case of Cc1cc(OCc2nc3ccccc3n2C(=O)OC(C)(C)C)ccc1NC(=S)Nc1ccc(Cl)c(Cl)c1 [Compound 5d, tert-butyl 2-((4-(3-(3,4-dichlorophenyl)thioureido)-3-methylphenoxy)methyl)-1H-benzo[d]imidazole-1-carboxylate], the “FLAP activity (in words)” value [1] is reported as “Inactive”, the IC50 [1] is reported as > 10000 nM and the “sEH activity (in words)” value (Human recombinant sEH) is reported as “inactive”. For the same compound, the IC50 (Human recombinant sEH; [5]) was > 10000 nM and the melting point was 172 °C.
For Cc1cc(NC(=O)Nc2ccc(Cl)c(Cl)c2)ccc1OCc1nc2ccccc2n1C(=O)OC(C)(C)C [Compound 5c, tert-butyl-2-((4-(3-(3,4-dichlorophenyl)ureido)-2-methylphenoxy)methyl)-1H-benzo[d]imidazole-1-carboxylate], the IC50 [1] was > 10000 nM, the IC50 (Human recombinant sEH) was 0.7 ± 0.1 nM and the melting point was 145 to 146 °C.
In the case of Cc1cc(OCc2nc3ccccc3[nH]2)ccc1NC(=O)Nc1ccc(Cl)c(Cl)c1 [Compound 6a, 1-(4-((1H-benzo[d]imidazol-2-yl)methoxy)-2-methylphenyl)-3-(3,4-dichlorophenyl)urea], the IC50 [1] is reported as 700 ± 100 nM, the IC50 (Human recombinant sEH; [5]) is reported as 56.9 ± 19.4 nM and the melting point is reported as 245 to 246 °C.
Compound Cc1cc(OCc2nc3ccccc3n2C(=O)OC(C)(C)C)ccc1NC(=O)Nc1ccc(Cl)c(Cl)c1 [Compound 5a, tert-butyl-2-((4-(3-(3,4-dichlorophenyl)ureido)-3-methylphenoxy)methyl)-1H-benzo[d]imidazole-1-carboxylate] has an IC50 [1] of 3700 ± 900 nM, an IC50 (Human recombinant sEH) of 0.7 ± 0.1 nM and a melting point of 261 to 263 °C.
For Cc1cc(OCc2nc3ccccc3s2)ccc1NC(=O)Nc1ccc(Cl)c(Cl)c1 [Diflapolin], the acute cytotoxicity [3] is given as “no acute cytotoxicity”, the “LT biosynthesis in vivo” value (LT biosynthesis) is given as “efficiently inhibits LT biosynthesis in vivo” and the “anti-inflammatory activity in mouse” value (LT biosynthesis; mouse) is given as “strong anti-inflammatory activity”. For the same compound, the solubility [4] was “poor solubility”.
With S=C(Nc1ccc(OCc2nc3ccccc3[nH]2)cc1)Nc1ccc(Cl)c(Cl)c1 [Compound 6e, 1-(4-((1H-benzo[d]imidazol-2-yl)methoxy)phenyl)-3-(3,4-dichlorophenyl)thiourea] the IC50 [1] was 500 ± 100 nM, the IC50 (Human recombinant sEH) was 271 ± 58.4 nM and the melting point was 160 to 162 °C.
Compound Cc1cc(OCc2nc3ccccc3[nH]2)ccc1NC(=S)Nc1ccc(Cl)c(Cl)c1 [Compound 6d, 1-(4-((1H-benzo[d]imidazol-2-yl)methoxy)-2-methylphenyl)-3-(3,4-dichlorophenyl)thiourea] has an IC50 [1] of 600 ± 100 nM, an IC50 (Human recombinant sEH) of 223 ± 85.8 nM and a melting point of 122 to 124 °C.

From paper PMC9518245 (Journal of Enzyme Inhibition and Medicinal Chemistry, 2022)
